Measurements reported in patent US20240148723A1, “MYCOBACTERIUM TUBERCULOSIS COMPOSITIONS AND METHODS” (priority 2021, published 2024).
In brackets after ≈: the same amount, converted by molar mass.

system: M. tuberculosis; assay type: cell-based, Mycobacterium tuberculosis; conditions: pH 6.8

SMILES	MIC in the media 7H9 [µg/mL]	MIC in the media L-Ala [µg/mL]	MIC in the media SBA [µg/mL]	MIC in the media SLac [µg/mL]
COc1ccc(-c2coc3cc(O)cc(O)c3c2=O)cc1 [compound 123538]	≥ 113.70	7.11 (≈ 25 µM)	7.11 (≈ 25 µM)	0.45 (≈ 1.58 µM)
NN=C1C(Cl)=C(Cl)C(Cl)=C1Cl [compound 126405]	≥ 23.19	5.80 (≈ 25 µM)	5.80 (≈ 25 µM)	5.80 (≈ 25 µM)
Cc1ccc2ccc(C#N)cc2c1O [compound 128068]	≥ 18.32	9.16 (≈ 50 µM)	9.16 (≈ 50 µM)	2.29 (≈ 12.5 µM)
CCCCOC(=O)c1ccc(N)cc1 [compound 128464]	≥ 800	0.06 (≈ 0.31 µM)	0.06 (≈ 0.31 µM)	0.06 (≈ 0.31 µM)
COC1C=COC2(C)Oc3c(C)c(O)c4c(O)c(cc(O)c4c3C2=O)NC(=O)C(C)=CC=CC(C)C(O)C(C)C(O)C(C)C(OC(C)=O)C1C (stereo not drawn) [compound 133100]	≥ 0.56	0.56 (≈ 0.803 µM)	0.56 (≈ 0.803 µM)	0.56 (≈ 0.803 µM)
CSc1nc(=O)[nH]nc1Sc1ccccc1 [compound 134058]	≥ 25.13	6.28 (≈ 25 µM)	3.14 (≈ 12.5 µM)	3.14 (≈ 12.5 µM)
Cc1ccc(C)c(N2CCN(c3ccncc3N)CC2)c1 [compound 147866]	≥ 14.12	14.12 (≈ 50 µM)	7.06 (≈ 25 µM)	1.77 (≈ 6.27 µM)
CC1(C)CCSC(C=Cc2ccccc2)=N1 [compound 150954]	≥ 11.57	5.78 (≈ 25 µM)	2.89 (≈ 12.5 µM)	2.89 (≈ 12.5 µM)
O=[N+]([O-])/C=C/c1cc2ccccc2[nH]1 [compound 150982]	≥ 18.82	9.41 (≈ 50 µM)	4.70 (≈ 25 µM)	2.35 (≈ 12.5 µM)
CCOc1ccc(N=Nc2ccc(N)cc2N)cc1 [compound 190374]	≥ 6.41	3.20 (≈ 12.5 µM)	6.41 (≈ 25 µM)	3.20 (≈ 12.5 µM)
Cc1ccc([S+]([O-])c2ccc([N+](=O)[O-])c3nonc23)cc1 (stereo not drawn) [compound 228150]	≥ 30.33	7.58 (≈ 25 µM)	3.79 (≈ 12.5 µM)	3.79 (≈ 12.5 µM)
O=[N+]([O-])c1ccc(Sc2cccc[n+]2[O-])c2nonc12 [compound 228155]	≥ 0.93	0.93 (≈ 3.2 µM)	0.93 (≈ 3.2 µM)	0.93 (≈ 3.2 µM)
Cn1ccc(=Nc2ccc(NC(=O)c3ccc(N=c4ccn(C)c5ccc([N+](=O)[O-])cc45)cc3)cc2)cc1 [compound 260594]	≥ 0.81	0.81 (≈ 1.61 µM)	1.61 (≈ 3.19 µM)	0.40 (≈ 0.793 µM)
CSc1ccc2c(c1)C(N1CCN(C)CC1)Cc1ccccc1S2.O=C(O)/C=C\C(=O)O (stereo not drawn) [compound 281816]	≥ 11.82	2.95	2.95	2.95
O=C1c2cccc3cc([N+](=O)[O-])cc(c23)C(=O)N1CCN1CCCC1 [compound 300289]	≥ 8.48	4.24 (≈ 12.5 µM)	2.12 (≈ 6.25 µM)	2.12 (≈ 6.25 µM)
c1ccc2c(c1)Sc1ccccc1N2CC1CN2CCC1CC2 (stereo not drawn) [compound 303612]	≥ 16.13	8.06 (≈ 25 µM)	8.06 (≈ 25 µM)	4.03 (≈ 12.5 µM)
OC(c1cc(-c2ccc(C(F)(F)F)cc2)nc(C(F)(F)F)c1)C1CCCCN1 (stereo not drawn) [compound 305798]	≥ 10.11	1.25 (≈ 3.09 µM)	2.53 (≈ 6.26 µM)	2.53 (≈ 6.26 µM)

SMILES	MIC in the media 7H9 [µg/mL]	MIC in the media L-Ala [µg/mL]	MIC in the media SBA [µg/mL]	MIC in the media SLac [µg/mL]
O=[N+]([O-])c1cnc(Sc2ccncn2)s1 [compound 311727]	≥ 24.03	0.77 (≈ 3.2 µM)	0.77 (≈ 3.2 µM)	0.77 (≈ 3.2 µM)
Cc1ccc(NCCN(C)C)c2c(=O)c3cc(O)ccc3sc12.I [compound 317003]	≥ 5.70	2.85	2.85	1.46
COc1cccc2[nH]c(-c3ccccn3)nc12 [compound 320656]	≥ 45.06	5.63 (≈ 25 µM)	11.27 (≈ 50 µM)	1.41 (≈ 6.26 µM)
CS(=O)(=O)O.OC(c1cc(C(F)(F)F)nc2c(Cl)cc(Cl)cc12)C1CCCCN1 (stereo not drawn) [compound 322661]	≥ 11.88	2.97	1.52	2.97
NC1(N2SC(S)=C3CCCC=C32)CCCCC1 [compound 327444]	≥ 26.84	6.71 (≈ 25 µM)	13.42 (≈ 50 µM)	3.36 (≈ 12.5 µM)
Cc1cc(C(C#N)c2ccc(Cl)cc2)c(Cl)cc1NC(=O)c1cc(I)cc(I)c1O (stereo not drawn) [compound 335306]	≥ 66.31	4.14 (≈ 6.24 µM)	4.14 (≈ 6.24 µM)	4.14 (≈ 6.24 µM)
Oc1c(N=Nc2nn[nH]n2)ccc2ccccc12 [compound 338106]	≥ 3.00	1.50 (≈ 6.24 µM)	1.50 (≈ 6.24 µM)	0.77 (≈ 3.21 µM)
CC[C@@]1([C@@H]2O[C@@H]([C@H]3O[C@@](O)(CO)[C@H](C)C[C@@H]3C)C[C@@H]2C)CC[C@H]([C@]2(C)CC[C@]3(C[C@H](O)[C@@H](C)[C@@H]([C@@H](C)[C@@H](OC)[C@H](C)C(=O)[O-])O3)O2)O1.[Na+] [compound 343257]	≥ 4.33	4.33	4.33	8.66
O=[N+]([O-])c1oc2ccc3ccccc3c2c1CCO [compound 373981]	≥ 0.82	0.82 (≈ 3.19 µM)	0.82 (≈ 3.19 µM)	0.82 (≈ 3.19 µM)
O=C(Nc1ccccc1)c1cc(Cl)ccc1O [compound 402600]	≥ 24.77	1.55 (≈ 6.26 µM)	1.55 (≈ 6.26 µM)	0.79 (≈ 3.19 µM)
CCCOC(=O)c1ccc([N+](=O)[O-])cc1 [compound 406847]	≥ 83.68	5.23 (≈ 25 µM)	10.46 (≈ 50 µM)	5.23 (≈ 25 µM)
O=C(CCc1ccc(O)cc1)c1c(O)cc(O)cc1O [compound 407292]	≥ 109.72	1.71 (≈ 6.23 µM)	3.43 (≈ 12.5 µM)	1.71 (≈ 6.23 µM)
Cc1nc(C(=O)N=C(N)N)c(N)nc1-c1ccccc1 [compound 614911]	≥ 108.12	13.52 (≈ 50 µM)	27.03 (≈ 100 µM)	27.03 (≈ 100 µM)
Cl.O=C(c1ccc(OCCN2CCCCC2)cc1)c1c(-c2ccc(O)cc2)sc2cc(O)ccc12 [compound 747974]	≥ 47.36	2.96	2.96	2.96
O=C(c1ccc(F)c(F)c1Nc1ccc(I)cc1F)N1CC(O)(C2CCCCN2)C1 (stereo not drawn) [compound 768068]	≥ 26.57	13.28 (≈ 25 µM)	3.32 (≈ 6.25 µM)	3.32 (≈ 6.25 µM)
CN1CCN(c2ccc(C(=O)Nc3n[nH]c4ccc(Cc5cc(F)cc(F)c5)cc34)c(NC3CCOCC3)c2)CC1 [compound 774769]	≥ 28.03	7.01 (≈ 12.5 µM)	3.50 (≈ 6.24 µM)	3.50 (≈ 6.24 µM)
